# Assay results taken from ChEMBL document CHEMBL5107956, “Natural products from mangrove sediments-derived microbes: Structural diversity, bioactivities, biosynthesis, and total synthesis” (Eur J Med Chem, 2022).
# Tests used:
# Influenza A virus = assay: Antiviral activity against Influenza A virus H1N1; type: functional, organism-based
# Candida albicans = assay: Antifungal activity against Candida albicans ATCC 10231 assessed as fungal growth inhibition by agar dilution method; type: functional
# Bacillus subtilis = assay: Antibacterial activity against Bacillus subtilis S028 assessed as bacterial cell growth inhibition by agar dilution method; type: functional
# Staphylococcus aureus [1] = assay: Antibacterial activity against Staphylococcus aureus S014 assessed as bacterial cell growth inhibition by agar dilution method; type: functional
# Escherichia coli = assay: Antibacterial activity against Escherichia coli S002 assessed as bacterial cell growth inhibition by agar dilution method; type: functional
# HCT-116 = assay: Cytotoxicity against human HCT-116 cells assessed as cell growth inhibition by MTT assay; type: functional, cell-based
# Staphylococcus aureus [2] = assay: Antibacterial activity against methicillin-resistant Staphylococcus aureus assessed as bacterial cell growth inhibition by agar dilution method; type: functional
# HeLa = assay: Cytotoxicity against human HeLa cells assessed as cell growth inhibition; type: functional, cell-based
# MCF7 = assay: Cytotoxicity against human MCF7 cells assessed as cell growth inhibition; type: functional, cell-based
structure (smiles),measurement,setting,value
CC(=O)C[C@H](c1nc2ccccc2c(=O)n1[C@@H]1C[C@]2(OC1=O)c1ccccc1N1C(=O)C(C)(C)N(O)[C@H]12)C(C)C,IC50,Influenza A virus,82000 nM
C/N=C(/N)NCCC/C=C/CCC[C@H](C)[C@@H]1OC(=O)/C(C)=C/C=C/[C@H](C)[C@@H](O)C[C@H](O)[C@@H](C)[C@H](O)CC[C@H](C)[C@@H](O)C[C@@]2(O)O[C@@H](C[C@@H](OC(=O)CCCCC(C)C)C[C@H](O)C[C@@H](O)C[C@H](O)/C(C)=C/C=C/[C@H]1C)C[C@@H](O)[C@@H]2O,MIC,Candida albicans,1.65 µg/mL
same,MIC,Bacillus subtilis,0.2 µg/mL
same,MIC,Staphylococcus aureus [1],0.39 µg/mL
same,MIC,Escherichia coli,3.13 µg/mL
C/N=C(\N)NCCC/C=C/CCCC(C)C1OC(=O)/C(C)=C/C=C/C(C)C(O)CC(O)C(C)C(O)CCC(C)C(O)CC2(O)OC(CC(OC(=O)CC(=O)O)CC(O)CC(O)CC(O)/C(C)=C/C=C/C1C)CC(O)C2O (stereo not given),MIC,Candida albicans,1.65 µg/mL
same,IC50,HCT-116,1.81 µg/mL
same,MBC,Staphylococcus aureus [2],8 µg/mL
same,MIC,Staphylococcus aureus [2],4 µg/mL
C/N=C(\NC)NCCC/C=C/CCCC(C)C1OC(=O)/C(C)=C/C=C/C(C)C(O)CC(O)C(C)C(O)CCC(C)C(O)CC2(O)OC(CC(OC(=O)CC(=O)O)CC(O)CC(O)CC(O)/C(C)=C/C=C/C1C)CC(O)C2O (stereo not given),MIC,Candida albicans,1.65 µg/mL
same,IC50,HCT-116,1.81 µg/mL
same,MBC,Staphylococcus aureus [2],8 µg/mL
same,MIC,Staphylococcus aureus [2],4 µg/mL
O=C1NC2c3nc4ccccc4c(=O)n3[C@H]1C[C@@]21c2ccccc2N2C(=O)[C@@H]3CCCN3[C@H]21,IC50,Influenza A virus,82000 nM
CS[C@H]1NC(=O)[C@@](Cc2ccc(CCC=C(C)C)cc2)(SC)N(C)C1=O,IC50,HeLa,4200 nM
C/N=C(/N)NCCC/C=C/CCC[C@H](C)[C@@H]1OC(=O)/C(C)=C/C=C/[C@H](C)[C@@H](O)C[C@H](O)[C@@H](C)[C@H](O)CC[C@H](C)[C@@H](O)C[C@@]2(O)O[C@@H](C[C@@H](OC(=O)CCCCCCCC(C)C)C[C@H](O)C[C@@H](O)C[C@H](O)/C(C)=C/C=C/[C@H]1C)C[C@@H](O)[C@@H]2O,MIC,Candida albicans,1.65 µg/mL
same,MIC,Bacillus subtilis,0.2 µg/mL
same,MIC,Staphylococcus aureus [1],0.39 µg/mL
same,MIC,Escherichia coli,3.13 µg/mL
CCCC(CC)COC(=O)CC(=O)OC1CC(O)CC2CC(O)C(O)C(O)(CC(O)C(C)CCC(O)C(C)C(O)CC(O)C(C)/C=C/C=C(\C)C(=O)OC(C(C)CCC/C=C/CCCN/C(N)=N\C)C(C)/C=C/C=C(\C)C(O)CC(O)C1)O2 (stereo not given),MIC,Candida albicans,1.65 µg/mL
same,MIC,Bacillus subtilis,0.2 µg/mL
same,MIC,Staphylococcus aureus [1],0.39 µg/mL
same,MIC,Escherichia coli,3.13 µg/mL
CC[C@@H]1[C@@H](C)O[C@@](OC)([C@@H](C)[C@H](O)[C@H](C)[C@H]2OC(=O)/C=C/C=C/[C@H](C)[C@@H]([C@@H](C)[C@@H](O)[C@H](C)[C@@]3(OC)C[C@@H](O[C@H]4C[C@H](O)[C@H](O)[C@H](C)O4)[C@H](CC)[C@@H](C)O3)OC(=O)/C=C/C=C/[C@@H]2C)C[C@H]1O[C@H]1C[C@H](O)[C@H](O)[C@H](C)O1,IC50,MCF7,190 nM
same,IC50,HeLa,190 nM
C/C1=C\C=C\[C@H](C)[C@@H](O)C[C@H](O)[C@@H](C)[C@H](O)CC[C@H](C)[C@@H](O)C[C@@]2(O)O[C@@H](C[C@@H](OC(=O)CCCCC(C)C)C[C@H](O)C[C@@H](O)C[C@H](O)/C(C)=C/C=C/[C@@H](C)[C@H]([C@@H](C)CCC/C=C/CCCNC(=N)N)OC1=O)C[C@@H](O)[C@@H]2O,MIC,Candida albicans,1.65 µg/mL
same,MIC,Bacillus subtilis,0.2 µg/mL
same,MIC,Staphylococcus aureus [1],0.39 µg/mL
same,MIC,Escherichia coli,3.13 µg/mL
C/N=C(\NC)NCCC/C=C/CCC[C@H](C)[C@@H]1OC(=O)/C(C)=C/C=C/[C@H](C)[C@@H](O)C[C@H](O)[C@@H](C)[C@H](O)CC[C@H](C)[C@@H](O)C[C@@]2(O)O[C@@H](C[C@@H](OC(=O)C(N)C(C)C)C[C@H](O)C[C@@H](O)C[C@H](O)/C(C)=C/C=C/[C@H]1C)C[C@@H](O)[C@@H]2O (stereo not given in full),MIC,Candida albicans,1.65 µg/mL
same,MIC,Bacillus subtilis,0.2 µg/mL
same,MIC,Staphylococcus aureus [1],0.39 µg/mL
same,MIC,Escherichia coli,3.13 µg/mL
CC[C@@H]1[C@@H](C)O[C@@](O)([C@@H](C)[C@H](O)[C@H](C)[C@H]2OC(=O)/C=C/C=C/[C@H](C)[C@@H]([C@@H](C)[C@@H](O)[C@H](C)[C@@]3(O)C[C@@H](O[C@H]4C[C@H](O)[C@H](O)[C@H](C)O4)[C@H](C)[C@@H](C)O3)OC(=O)/C=C/C=C/[C@@H]2C)C[C@H]1O[C@H]1C[C@H](O)[C@H](O)[C@H](C)O1,IC50,MCF7,190 nM
same,IC50,HeLa,190 nM
CC[C@@H]1[C@@H](C)O[C@@](O)([C@@H](C)[C@H](O)[C@H](C)[C@H]2OC(=O)/C=C/C=C/[C@H](C)[C@@H]([C@@H](C)[C@@H](O)[C@H](C)[C@@]3(O)C[C@@H](O[C@H]4C[C@H](O)[C@H](O)[C@H](C)O4)[C@H](CC)[C@@H](C)O3)OC(=O)/C=C/C=C/[C@@H]2C)C[C@H]1O[C@H]1C[C@H](O)[C@H](O)[C@H](C)O1,IC50,MCF7,190 nM
same,IC50,HeLa,190 nM
C/N=C(\NC)NCCC/C=C/CCC[C@H](C)[C@@H]1OC(=O)/C(C)=C/C=C/[C@H](C)[C@@H](O)C[C@H](O)[C@@H](C)[C@H](O)CC[C@H](C)[C@@H](O)C[C@@]2(O)O[C@@H](C[C@@H](O)C[C@H](OC(=O)CC(=O)O)C[C@@H](O)C[C@H](O)/C(C)=C/C=C/[C@H]1C)C[C@@H](O)[C@@H]2O,MIC,Candida albicans,1.65 µg/mL
same,MIC,Bacillus subtilis,0.2 µg/mL
same,MIC,Staphylococcus aureus [1],0.39 µg/mL
same,MIC,Escherichia coli,3.13 µg/mL
CC[C@@H]1[C@@H](C)O[C@@](O)([C@@H](C)[C@H](O)[C@H](C)[C@H]2OC(=O)/C=C/C=C/[C@H](C)[C@@H]([C@@H](C)[C@@H](O)[C@@H](C)[C@@]3(O)C[C@@H](O[C@H]4C[C@H](O)[C@H](O)[C@H](C)O4)[C@H](CC)[C@@H](C)O3)OC(=O)/C=C/C=C/[C@@H]2C)C[C@H]1OC,IC50,MCF7,190 nM
same,IC50,HeLa,190 nM
C/C1=C\C=C\C(C)C(O)CC(O)C(C)C(O)CCC(C)C(O)CC2(O)OC(CC(OC(=O)CC(=O)O)CC(O)CC(O)CC(O)/C(C)=C/C=C/C(C)C(C(C)CCC/C=C/CCCNC(=N)N)OC1=O)CC(O)C2O (stereo not given),MIC,Candida albicans,1.65 µg/mL
same,IC50,HCT-116,1.81 µg/mL
same,MBC,Staphylococcus aureus [2],8 µg/mL
same,MIC,Staphylococcus aureus [2],4 µg/mL
CN[C@@H]1O[C@H]2C[C@@](C)([C@@H]1OC)n1c3ccccc3c3c4c(c5c6ccccc6n2c5c31)C(=O)NC4,IC50,HCT-116,40 nM
CCCC(CC)COC(=O)CC(=O)OC1CC(O)CC(O)CC(O)/C(C)=C/C=C/C(C)C(C(C)CCC/C=C/CCCN/C(=N/C)NC)OC(=O)/C(C)=C/C=C/C(C)C(O)CC(O)C(C)C(O)CCC(C)C(O)CC2(O)OC(C1)CC(O)C2O (stereo not given),MIC,Candida albicans,1.65 µg/mL
CC[C@@H]1[C@@H](C)O[C@@](O)([C@@H](C)[C@H](O)[C@H](C)[C@H]2OC(=O)/C=C/C=C/[C@H](C)[C@@H]([C@@H](C)[C@@H](O)[C@H](C)[C@@]3(O)C[C@@H](O[C@H]4C[C@H](O)[C@H](O)[C@H](C)O4)[C@H](CC)[C@@H](C)O3)OC(=O)/C(C)=C/C=C/[C@@H]2C)C[C@H]1O[C@H]1C[C@H](O)[C@H](O)[C@H](C)O1,IC50,MCF7,190 nM
same,IC50,HeLa,190 nM
CC[C@@H]1[C@@H](C)O[C@@](OC)([C@@H](C)[C@H](O)[C@H](C)[C@H]2OC(=O)/C=C/C=C/[C@H](C)[C@@H]([C@@H](C)[C@@H](O)[C@H](C)[C@@]3(O)C[C@@H](O[C@H]4C[C@H](O)[C@H](O)[C@H](C)O4)[C@H](CC)[C@@H](C)O3)OC(=O)/C=C/C=C/[C@@H]2C)C[C@H]1O[C@H]1C[C@H](O)[C@H](O)[C@H](C)O1,IC50,MCF7,190 nM
same,IC50,HeLa,190 nM
CC(=O)C[C@H](c1nc2ccccc2c(=O)n1[C@@H]1C[C@]2(OC1=O)c1ccccc1N1C(=O)[C@H](C)N[C@H]12)C(C)C,IC50,Influenza A virus,82000 nM
CC(C)=C1NC(=O)[C@@H](C[C@]2(O)c3ccccc3N3C(=O)[C@H](C)N[C@H]32)n2c1nc1ccccc1c2=O,IC50,Influenza A virus,82000 nM
CCCC(CC)COC(=O)CC(=O)OC1CC(O)CC(O)CC(O)/C(C)=C/C=C/C(C)C(C(C)CCC/C=C/CCCN/C(N)=N/C)OC(=O)/C(C)=C/C=C/C(C)C(O)CC(O)C(C)C(O)CCC(C)C(O)CC2(O)OC(C1)CC(O)C2O (stereo not given),MIC,Candida albicans,1.65 µg/mL
C/N=C(/NC)NCCC/C=C/CCC[C@H](C)[C@@H]1OC(=O)/C(C)=C/C=C/[C@H](C)[C@@H](O)C[C@H](O)[C@@H](C)[C@H](O)CC[C@H](C)[C@@H](O)C[C@@]2(O)O[C@@H](C[C@@H](OC(=O)CCCCCCCCC(C)C)C[C@H](O)C[C@@H](O)C[C@H](O)/C(C)=C/C=C/[C@H]1C)C[C@@H](O)[C@@H]2O,MIC,Candida albicans,1.65 µg/mL
same,MIC,Bacillus subtilis,0.2 µg/mL
same,MIC,Staphylococcus aureus [1],0.39 µg/mL
same,MIC,Escherichia coli,3.13 µg/mL
CC(=O)C[C@H](c1nc2ccccc2c(=O)n1[C@@H]1C[C@]2(OC1=O)c1ccccc1N1C(=O)C(C)(C)N[C@H]12)C(C)C,IC50,Influenza A virus,82000 nM
O=C1NC(=O)[C@H](Cc2c[nH]c3ccccc23)n2c1nc1ccccc1c2=O,IC50,Influenza A virus,82000 nM
COC(=O)Nc1ccc(C)c(NC(=O)N(C)[C@@H]2O[C@H]3C[C@@](C)([C@@H]2OC)n2c4ccccc4c4c5c(c6c7ccccc7n3c6c42)C(=O)NC5)c1,IC50,HCT-116,370 nM
CC[C@@H]1[C@@H](C)O[C@@](OC)([C@@H](C)[C@H](O)[C@H](C)[C@H]2OC(=O)/C=C/C=C/[C@H](C)[C@@H]([C@@H](C)[C@@H](O)[C@H](C)[C@@]3(OC)C[C@@H](O[C@H]4C[C@H](O)[C@H](O)[C@H](C)O4)[C@H](CC)[C@@H](C)O3)OC(=O)/C(C)=C/C=C/[C@@H]2C)C[C@H]1O[C@H]1C[C@H](O)[C@H](O)[C@H](C)O1,IC50,MCF7,190 nM
same,IC50,HeLa,190 nM
